Values joined by “and” are separate entries in the source; they are usually repeats but may differ in a detail not shown here. Equal values may be shown once. Read-outs that look alike come from different tables or passages of the source.
Test system: human DMD exon 50 GFP based reporter
Experiment: BioMol high throughput screen in Ex50-GFP reporter C2C12 myoblasts, with or without AON6
Assay type: cell-based, mouse
Details: for Average Fluorescence (n = 3): average of 3 replicate plates
Description: Small molecule libraries were screened for exon skipping promoting activity in C2C12 myoblasts expressing a human DMD exon 50 GFP based reporter. […] In the reporter cells, successful skipping of DMD exon 50 creates in-frame GFP expression. Number of cells that were fluorescing was quantified using a high content cell imager in 384 well plate format. Fluorescence was normalized by subtracting the average fluorescence value of the carrier (DMSO) controls. Fluorescence readouts are plotted for the BioMol library screen both with (+AO) and without (−AO) from Source Plate 1 (containing the Orphan Ligand, Ion Channel, Enzyme Inhibitor, and Endocannabanoid libraries, n=300). Each point for the DMSO controls, all compounds, and the Top 5% from Source Plate 1 (n=15) represents the average normalized fluorescence of 6 replicates in the −AO screen and 3 replicates in the +AO screen. […] Individual points for dantrolene are plotted with the bold horizontal line indicating the median. The short horizontal lines interspersed among the data points indicate 1, 2, and 3 standard deviations away from the DMSO treatment mean fluorescence.
In contrast to prior screens aimed at identifying small molecules which impact exon skipping, our screen is unique at least because it relies on robust quantitation of a skipping reporter in the context of a muscle lineage cell in the presence and absence of suboptimal AO. These screens were performed using a mouse muscle cell line (C2C12) expressing a human DMD exon 50 GFP based reporter selected to minimize experimental variation and sensitivity in the context of an automated and quantitative fluorescent scanning system.
AO was added prior to small molecule incubation in an effort to identify molecules that facilitate AO skipping rather than AO delivery. The fluorescence induced by each compound was normalized to a vehicle controls per plate to correct for plate to plate variability. Fluorescence was averaged across replicate plates (n=6 without AO screen, n=3 with AO screen). Compounds were rank ordered based on average intensity of fluorescence and difference between the without AO and with AO screen (FIG. 1 and Table 2).
A stable clone was generated from C2C12 cells transfected with a human exon 50 DMD GFP reporter (ex50GFP) that has been previously described. Ex50GFP reporter myoblasts were seeded into uncoated 384 well plates and were incubated for 4 hours either with or without 300 nM of 2′-O-methyl phosphorothioate AON6 [5′[…] 3′ (SEQ ID NO:1)] targeting the human exon 50 splice donor site. Cells were transfected with AON6 using the FUGENE (Roche) transfection reagent per manufacturer's instructions. Following AON6 incubation, each component of the BioMol library (n=503) was screened at 10 uM concentration with a final concentration of the DMSO carrier being 1%. Forty-eight hours later fluorescence was measured using the MicroXpress high content imager and analyzed using MetaXpress. Immediately preceding imaging, DNA was stained with Hoescht for 30 min. The BioMol screen without AO (−AO) was performed in 6 replicates, and the with AO (+AO) screen was performed in 3 replicates. For the screen analysis raw fluorescence values were normalized to carrier controls present on each plate by subtracting the values. Negative fluorescence values were set to 0. The data from each compound were averaged from all replicates. For secondary screening by 12 or 16 point dose response, Ex50GFP myoblasts or C2C12 cells without the reporter were seeded on uncoated 384 well plates. A sub-optimal dose of AON6 targeting DMD exon 50 was added for 4 hours.

[1] = With AON6 screen, compound 10 uM, 48 h, fluorescence normalized by subtracting DMSO carrier controls
[2] = With AON6 screen, compound 10 uM, 48 h, normalized to DMSO carrier controls
[3] = With AON6 screen, compound 10 uM
[4] = Without AON6 screen, compound 10 uM, 48 h, normalized to DMSO carrier controls
[5] = Without AON6 screen, compound 10 uM, average of 6 replicate plates

Row | Molecule | Fluorescence Plate 1 [1] | Fluorescence Plate 2 [2] | Fluorescence Plate 3 [2] | Average Fluorescence (n = 3) [3] | Fluorescence Plate 1 [4] | Fluorescence Plate 2 [4] | Fluorescence Plate 3 [4] | Fluorescence Plate 4 [4] | Fluorescence Plate 5 [4] | Fluorescence Plate 6 [4] | Average Fluorescence (n = 6) [5] | other results
1 | CC(n1cc(C[C@H](N)C(=O)O)c2ccccc21)n1cc(C[C@H](N)C(=O)O)c2ccccc21 | 20.72 | 11.15 | 22.18 | 18.02 | – | – | – | – | – | – | – | –
2 | CC(N/C(=N\C#N)Nc1ccncc1)C(C)(C)C (centres unmarked) | 15.64 | 27.20 | 11.56 | 18.13 | – | – | – | – | – | – | – | –
3 | Nc1ncnc2c1c(I)cn2[C@@H]1O[C@H](CO)C(O)C1O (some centres unmarked) [5-IODOTUBERCIDIN] | – | – | – | – | -0.41 | 6.65 | 9.13 | 18.27 | 30.70 | 6.10 | 11.74 | –
4 | O=Cc1c2c(cc3c1=Nc1ccccc1-3)=Nc1ccccc1-2 [6-FORMYLINDOLO [3,2-b] CARBAZOLE] | 30.05 | 30.08 | 32.59 | 30.90 | – | – | – | – | – | – | – | –
5 | N#C/C(=C/c1ccc(O)c(O)c1)C(=O)NCc1ccccc1 [AG-490] | 7.17 | 30.27 | 13.54 | 16.99 | – | – | – | – | – | – | – | –
6 | N#C/C(=C\c1ccc(O)c(O)c1)C(=O)Nc1ccccc1 [AG-494] | 19.38 | 25.36 | 25.25 | 23.33 | 5.92 | 1.23 | 1.65 | 7.58 | 3.54 | 5.26 | 4.20 | –
7 | COc1cc(/C=C(\C#N)C(N)=O)cc(CSc2nc3ccccc3s2)c1O [AG-825] | 17.24 | 23.38 | 11.53 | 17.38 | – | – | – | – | – | – | – | –
8 | CC(C)(C)c1cc(/C=C(\C#N)C(N)=S)cc(C(C)(C)C)c1O [AG-879] | – | – | – | – | 1.23 | 3.24 | 3.46 | 6.94 | 8.93 | 2.06 | 4.31 | –
9 | C[C@@]12C(=O)OC(=O)[C@]1(C)[C@H]1CC[C@@H]2O1 [CANTHARIDIN] | – | – | – | – | 11.40 | −1.04 | 0.63 | 5.55 | 4.34 | 4.45 | 4.22 | –
10 | N=C(NCc1ccc(Cl)c(Cl)c1)NC(=O)c1nc(Cl)c(N)nc1N [DICHLOROBENZAMIL] | – | – | – | – | 22.19 | 15.01 | 13.67 | 4.78 | 7.44 | 6.66 | 11.63 | –
11 | CCCCC/C=C\C/C=C\C/C=C\C/C=C\CCCCCC(=O)NCCc1ccc(O)c(O)c1 [Docosatetra-7Z,10Z,13Z,16Z-enoyl dopamine] | – | – | – | – | – | – | – | – | – | – | – | Average Fluorescence (n = 6): 4.71; Fluorescence Plate 1: −1.65; Fluorescence Plate 2: 5.21; Fluorescence Plate 3: 7.47; Fluorescence Plate 4: 2.30; Fluorescence Plate 5: 9.50; Fluorescence Plate 6: 5.44
12 | NCCNS(=O)(=O)c1cccc2cnccc12 [H-9] | 18.09 | 19.17 | 13.25 | 16.84 | – | – | – | – | – | – | – | –
13 | COc1ccc2c3c([nH]c2c1)C(C)=NCC3.Cl [HARMALINE HCl] | 15.00 | 42.55 | 0.22 | 19.26 | 31.97 | 27.56 | 27.06 | 22.50 | 16.09 | 19.75 | 24.15 | –
14 | COC(=O)C1=C(C)NC(C)=C(C(=O)OCCCN2CCC(c3ccccc3)(c3ccccc3)CC2)[C@H]1c1cccc([N+](=O)[O-])c1 [NIGULDIPINE] | – | – | – | – | – | – | – | – | – | – | – | Average Fluorescence (n = 6): 4.12; Fluorescence Plate 1: 5.07; Fluorescence Plate 2: 1.34; Fluorescence Plate 3: 3.34; Fluorescence Plate 4: 8.06; Fluorescence Plate 5: 6.06; Fluorescence Plate 6: 0.84
15 | CCCCCCCC/C=C\CCCCCCCC(=O)NCCc1ccc(O)c(O)c1 [Oleoyl dopamine] | – | – | – | – | 2.78 | 1.51 | 12.34 | 3.21 | 3.30 | 1.32 | 4.08 | –
16 | CCN(CC)CCNC(=O)c1ccc(N)cc1 [PROCAINAMIDE] | 13.80 | 19.66 | 20.81 | 18.09 | – | – | – | – | – | – | – | –
17 | Cn1cc(C2=C(c3cn(CCCSC(=N)N)c4ccccc34)C(=O)NC2=O)c2ccccc21 [Ro 31-8220] | – | – | – | – | 17.56 | 50.61 | 46.79 | 38.49 | 31.21 | 34.94 | 36.60 | –
18 | COc1ccc2cc1Oc1ccc(cc1)C[C@H]1c3cc(c(OC)cc3CCN1C)Oc1c(OC)c(OC)cc3c1[C@H](C2)N(C)CC3 [TETRANDRINE] | – | – | – | – | 3.15 | 2.41 | 5.39 | 4.64 | 5.03 | 6.64 | 4.54 | –
19 | N#C/C(=C\c1ccc(O)c(O)c1)C(N)=O [TYRPHOSTIN 46] | 8.61 | 30.70 | 14.09 | 17.80 | – | – | – | – | – | – | – | –
20 | N#CC(=C(N)Sc1ccccc1N)C(C#N)=C(N)Sc1ccccc1N [U-0126] | 17.87 | 35.65 | 16.65 | 23.39 | – | – | – | – | – | – | – | –
21 | COC[C@H]1OC(=O)c2coc3c2[C@@]1(C)C1=C(C3=O)[C@@H]2CCC(=O)[C@@]2(C)C[C@H]1OC(C)=O [WORTMANNIN] | – | – | – | – | 4.99 | 3.07 | 4.23 | 5.92 | 6.44 | 3.78 | 4.74 | –
22 | INDIRUBIN | – | – | – | – | – | – | 6.43 and 6.44 | – | 3.42 and 6.60 | – | 17.88 and 8.26 | –

From patent US10188633B2, “Identification of small molecules that facilitate therapeutic exon skipping” (The Regents of the University of California, priority 2011, dated 2019)
